# Patent publication EP0934300B1, “THE PREPARATION AND USE OF ORTHO-S[…] AS MATRIX METALLOPROTEINASE AND TACE INHIBITORS” (American Cyanamid Company, priority 1996, dated 1998)
# Tests used:
# Type in all cases: biochemical
# [1] = molecular target: T1, MMP-1 (Homo sapiens, UniProt P03956); test: MMP-1 inhibition (thiopeptide or fluorescent peptide substrate assay); conditions: for inhibition at 1 µM: read-out: MMP-1 % inhibition, concentration 1 µM
# T1 sequence (P03956 100-469): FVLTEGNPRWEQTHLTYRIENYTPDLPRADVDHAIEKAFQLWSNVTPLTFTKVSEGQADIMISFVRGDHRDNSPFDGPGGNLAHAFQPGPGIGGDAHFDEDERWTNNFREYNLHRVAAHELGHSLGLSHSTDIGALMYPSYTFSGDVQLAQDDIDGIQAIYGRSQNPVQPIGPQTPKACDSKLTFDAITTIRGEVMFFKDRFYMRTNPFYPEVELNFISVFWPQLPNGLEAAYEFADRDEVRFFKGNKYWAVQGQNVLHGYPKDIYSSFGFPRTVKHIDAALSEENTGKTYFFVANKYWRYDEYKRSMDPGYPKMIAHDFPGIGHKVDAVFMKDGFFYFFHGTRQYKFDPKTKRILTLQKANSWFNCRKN
# Experimental: (§1) These assays are based on the cleavage of a thiopeptide substrates such as Ac-Pro-Leu-Gly(2mercapto-4 methyl-pentanoyl)-Leu-Gly-OEt by the matrix metalloproteinases MMP-1, MMP-13 (collagenases) or MMP-9 (gelatinase), which results in the release of a substrate product that reacts colorimetrically with DTNB (5,5'-dithiobis(2-nitro-benzoic acid)). The enzyme activity is measured by the rate of the color increase. The thiopeptide substrate is made up fresh as a 20 mM stock in 100% DMSO and the DTNB is dissolved in 100% DMSO as a 100 mM stock and stored in the dark at room temperature. Both the substrate and DTNB are diluted together to 1 mM with substrate buffer (50 mM HEPES pH 7.5, 5 mM CaCl2) before use. The stock of enzyme is diluted with assay buffer (50 mM HEPES, pH 7.5, 5 mM CaCl2, 0.02% Brij) to the desired final concentration.
# (§2) Alternatively, a fluorescent peptide substrate is used. In this assay, the peptide substrate contains a fluorescent group and a quenching group. Upon cleavage of the substrate by an MMP, the fluorescence that is generated is quantitated on the fluorescence plate reader. The assay is run in HCBC assay buffer (50mM HEPES, pH 7.0, 5 mM Ca^+2, 0.02% Brij, 0.5% Cysteine), with human recombinant MMP-1, MMP-9, or MMP-13. The substrate is dissolved in methanol and stored frozen in 1 mM aliquots. For the assay, substrate and enzymes are diluted in HCBC buffer to the desired concentrations. Compounds are added to the 96 well plate containing enzyme and the reaction is started by the addition of substrate. The reaction is read (excitation 340 nm, emission 444 nm) for 10 min. and the increase in fluorescence over time is plotted as a linear line.
# (§3) For either the thiopeptide or fluorescent peptide assays, the slope of the line is calculated and represents the reaction rate. The linearity of the reaction rate is confirmed (r^2 >0.85). The mean (x±sem) of the control rate is calculated and compared for statistical significance (p<0.05) with drug-treated rates using Dunnett's multiple comparison test.
# [2] = molecular target: MMP-9 (Homo sapiens, UniProt P14780); test: MMP-9 inhibition (thiopeptide or fluorescent peptide substrate assay); conditions: for inhibition at 10 µM: concentration 10 µM
# Sequence of MMP-9 (P14780 94-707): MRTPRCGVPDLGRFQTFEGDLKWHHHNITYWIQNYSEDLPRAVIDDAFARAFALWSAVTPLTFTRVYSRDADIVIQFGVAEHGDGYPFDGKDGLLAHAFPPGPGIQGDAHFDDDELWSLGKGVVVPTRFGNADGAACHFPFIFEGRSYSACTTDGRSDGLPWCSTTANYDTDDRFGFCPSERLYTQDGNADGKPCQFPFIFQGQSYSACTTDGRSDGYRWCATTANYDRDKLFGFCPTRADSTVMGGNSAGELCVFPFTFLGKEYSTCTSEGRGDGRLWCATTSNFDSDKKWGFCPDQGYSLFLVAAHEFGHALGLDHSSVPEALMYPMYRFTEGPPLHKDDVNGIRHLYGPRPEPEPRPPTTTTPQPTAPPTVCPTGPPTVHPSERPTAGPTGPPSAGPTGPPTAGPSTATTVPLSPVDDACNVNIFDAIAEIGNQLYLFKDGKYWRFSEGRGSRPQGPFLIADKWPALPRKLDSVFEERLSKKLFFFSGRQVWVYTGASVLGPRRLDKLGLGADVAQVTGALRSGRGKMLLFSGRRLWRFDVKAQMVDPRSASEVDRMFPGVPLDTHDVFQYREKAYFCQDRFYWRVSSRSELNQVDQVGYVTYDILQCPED
# Experimental: as §1, §2, §3
# [3] = molecular target: MMP-13 (Homo sapiens, UniProt P45452); test: MMP-13 inhibition (thiopeptide or fluorescent peptide substrate assay)
# Experimental: Alternatively, a fluorescent peptide substrate is used. In this assay, the peptide substrate contains a fluorescent group and a quenching group. Upon cleavage of the substrate by an MMP, the fluorescence that is generated is quantitated on the fluorescence plate reader. […] The substrate is dissolved in methanol and stored frozen in 1 mM aliquots. For the assay, substrate and enzymes are diluted in HCBC buffer to the desired concentrations. Compounds are added to the 96 well plate containing enzyme and the reaction is started by the addition of substrate.
# [4] = molecular target: T2, TACE (Homo sapiens, UniProt P78536); test: TACE inhibition (fluorescent peptidyl substrate assay)
# T2 construct: purchased Immunex
# T2 sequence (P78536 215-824): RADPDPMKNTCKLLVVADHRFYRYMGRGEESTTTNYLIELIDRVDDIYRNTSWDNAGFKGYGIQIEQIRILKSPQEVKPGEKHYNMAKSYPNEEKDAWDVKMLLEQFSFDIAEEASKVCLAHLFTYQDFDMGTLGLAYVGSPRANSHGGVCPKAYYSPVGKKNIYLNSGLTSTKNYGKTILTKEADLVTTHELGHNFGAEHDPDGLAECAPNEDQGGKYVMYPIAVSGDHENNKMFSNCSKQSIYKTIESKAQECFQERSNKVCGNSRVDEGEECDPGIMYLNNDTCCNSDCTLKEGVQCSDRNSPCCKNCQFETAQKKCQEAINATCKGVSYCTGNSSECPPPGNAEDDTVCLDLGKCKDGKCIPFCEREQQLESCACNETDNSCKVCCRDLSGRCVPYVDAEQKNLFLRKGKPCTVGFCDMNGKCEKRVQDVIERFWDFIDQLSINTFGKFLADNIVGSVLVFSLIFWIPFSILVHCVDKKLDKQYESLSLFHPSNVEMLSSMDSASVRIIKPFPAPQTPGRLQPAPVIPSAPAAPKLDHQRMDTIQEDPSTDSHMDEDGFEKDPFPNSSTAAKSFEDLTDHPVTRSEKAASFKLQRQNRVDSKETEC
# Experimental: Using 96-well black microtiter plates, each well receives a solution composed of 10 µL TACE (Immunex, final concentration 1µg/mL), 70µL Tris buffer, pH 7.4 containing 10% glycerol (final concentration 10 mM), and 10 µL of test compound solution in DMSO (final concentration 1µM, DMSO concentration <1%) and incubated for 10 minutes at room temperature.
# The reaction is read (excitation 340 nm, emission 420 nm) for 10 min. and the increase in fluorescence over time is plotted as a linear line. The slope of the line is calculated and represents the reaction rate.
structure (smiles),measurement,setting,value
"COc1ccc(S(=O)(=O)N(Cc2ccccc2)c2ccsc2C(=O)NO)cc1 [Example 13, 3-[Benzyl-(4-methoxy-benzenesulfonyl)-amino]-thiophene-2-carboxylic acid hydroxyamide]",inhibition at 1 µM,[1],19.3%
same,inhibition at 10 µM,[2]; read-out: MMP-9 % inhibition,57.3%
"COc1ccc(S(=O)(=O)N(Cc2ccccc2)c2cscc2C(=O)NO)cc1 [Example 14, 4-[Benzyl-(4-methoxy-benzenesulfonyl)-amino]-thiophene-3-carboxylic acid hydroxyamide]",inhibition at 1 µM,[1],40%
same,inhibition at 10 µM,[2]; read-out: MMP-9 % inhibition,66.8%
"COc1ccc(S(=O)(=O)N(Cc2ccccc2)c2c(C(=O)NO)cnn2C)cc1 [Example 15, 5-[Benzyl-(4-methoxy-benzenesulfonyl)-amino]-1-methyl-1H-pyrazole-4-carboxylic acid hydroxyamide]",inhibition at 1 µM,[1],22.1%
same,IC50,[2],930 nM
"COc1ccc(S(=O)(=O)N(Cc2ccccc2)c2c(C)csc2C(=O)NO)cc1 [Example 16, 3-[Benzyl-(4-methoxy-benzenesulfonyl)-amino]-4-methyl-thiophene-2-carboxylic acid hydroxyamide]",IC50,[2],104 nM
"COc1ccc(S(=O)(=O)N(Cc2ccccc2)c2c(C(=O)NO)csc2Br)cc1 [Example 20, 4-[Benzyl-(4-methoxy-benzenesulfonyl)-amino]-5-bromo-thiophene-3-carboxylic acid hydroxyamide]",IC50,[1],638 nM
same,IC50,[2],236 nM
same,IC50,[3],472 nM
"C#Cc1scc(C(=O)NO)c1N(Cc1ccccc1)S(=O)(=O)c1ccc(OC)cc1 [Example 23, 4-[Benzyl-(4-methoxy-benzenesulfonyl)-amino]-5-ethynyl-thiophene-3-carboxylic acid hydroxyamide]",inhibition at 1 µM,[1],48.9%
same,inhibition at 300 µM,"[2]; read-out: MMP-9 % inhibition, concentration 300 µM",38.4%
same,inhibition at 300 µM,[3]; read-out: MMP-13 % inhibition,35%
"COc1ccc(S(=O)(=O)N(Cc2cccnc2)c2c(C(=O)NO)csc2Br)cc1 [Example 26, 5-Bromo-4-[(4-methoxy-benzenesulfonyl)-pyridin-3-ylmethyl-amino]-thiophene-3-carboxylic acid hydroxyamide]",IC50,[1],1000 nM
same,IC50,[2],70 nM
same,inhibition at 1 µM,[4]; concentration 1 µM,42%
"COc1ccc(S(=O)(=O)N(Cc2ccccc2)c2c(C(=O)NO)cc(OC)nc2OC)cc1 [Example 33, 3-[Benzyl-(4-methoxy-benzenesulfonyl)-amino]-N-hydroxy-2,6-dimethoxyisonicotinamide]",IC50,[2],15 nM
same,IC50,[3],47 nM
same,IC50,[4],294 nM
